Values of other authors in patent US20260355183A1, “METHODS OF TREATING HEPATIC-ONLY METASTATIC UVEAL MELANOMA” (IDEAYA BIOSCIENCES, INC., priority 2023, published 2026).

Legend:
[1] = system: ocular melanoma liver metastases; settings: in vivo
certain PKC isototypes = settings: background statement
[2] = system: uveal melanoma cells harboring GNAQ mutations; settings: by targeting PKC/ERK1/2 and PKC/NF-xB pathways; X. Wu et al., Mol. Cancer Ther. 11, 1905-1914, 2012

Row | SMILES | DCR [1] [%] | activity against PKC isotypes (certain PKC isototypes) | inhibition of growth of uveal melanoma cells harboring GNAQ mutations [2]
1 | N[C@@H](Cc1ccc(N(CCCl)CCCl)cc1)C(=O)O [melphalan] | 76.3 | – | –
2 | CN1CCN(c2nc(C3=C(c4c[nH]c5ccccc45)C(=O)NC3=O)c3ccccc3n2)CC1 [sotrastaurin] | – | activity against certain PKC isototypes | selectively inhibit the growth of uveal melanoma cells harboring GNAQ mutations
